Reference: ChEMBL document CHEMBL1151595, “Palladium-catalyzed synthesis of C3-substituted 3-deoxymorphines” (Bioorg Med Chem Lett, 1994)

What was measured:
Format in all cases: tissue-based
[1] = target: Kappa-type opioid receptor (Cavia porcellus, UniProt P41144); experiment: Binding to kappa opioid receptor by using [3H]U-69593 as radioligand in guinea pig cerebellum
[2] = target: Mu-type opioid receptor (Cavia porcellus) (UniProt P97266); experiment: Binding to mu opioid receptor by using [3H]DAMGO as radioligand in guinea pig brain minus cerebellum at 10 uM
Mu-type opioid receptor (Cavia porcellus), sequence (P97266 whole entry): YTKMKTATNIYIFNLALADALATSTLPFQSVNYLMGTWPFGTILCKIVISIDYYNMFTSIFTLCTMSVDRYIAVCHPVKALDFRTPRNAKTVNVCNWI

Mu-type opioid receptor = Mu-type opioid receptor (Cavia porcellus, UniProt P97266); experiment: Binding to mu opioid receptor by using [3H]DAMGO as radioligand in guinea pig brain minus cerebellum
Mu-type opioid receptor, sequence (P97266 whole entry): as above

Kappa-type opioid receptor, sequence (P41144 whole entry): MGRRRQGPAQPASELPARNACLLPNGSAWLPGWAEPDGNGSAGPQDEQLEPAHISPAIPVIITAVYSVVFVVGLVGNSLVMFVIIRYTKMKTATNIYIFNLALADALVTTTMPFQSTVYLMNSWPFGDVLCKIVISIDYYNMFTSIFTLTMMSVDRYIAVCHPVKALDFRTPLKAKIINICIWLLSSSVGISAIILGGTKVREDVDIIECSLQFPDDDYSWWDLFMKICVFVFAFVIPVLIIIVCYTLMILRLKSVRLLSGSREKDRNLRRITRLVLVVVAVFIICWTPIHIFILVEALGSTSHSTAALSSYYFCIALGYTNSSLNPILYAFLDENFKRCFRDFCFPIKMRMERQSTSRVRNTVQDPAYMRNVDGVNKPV

Row | SMILES | IC50 [1] [µM] | inhibition [2] [%] | IC50 (Mu-type opioid receptor) [µM]
1 | CN1CC[C@]23c4c5ccc(-c6cc7ccccc7s6)c4O[C@H]2[C@@H](O)C=C[C@H]3[C@H]1C5 | 126 | 41 | –
2 | CN1CC[C@]23c4c5ccc(-c6ccoc6)c4O[C@H]2[C@@H](O)C=C[C@H]3[C@H]1C5 | 0.91 | – | 0.2
3 | CN1CC[C@]23c4c5ccc(OS(=O)(=O)C(F)(F)F)c4O[C@H]2[C@@H](O)C=C[C@H]3[C@H]1C5 | 111 | – | 6.4
4 | CN1CC[C@]23c4c5ccc(-c6ccco6)c4O[C@H]2[C@@H](O)C=C[C@H]3[C@H]1C5 | 9.5 | – | 2.6
5 | Cc1ccc2c3c1O[C@H]1[C@@H](O)C=C[C@H]4[C@@H](C2)N(C)CC[C@@]341 | 36 | – | 4.5
6 | CN1CC[C@]23c4c5ccc(-c6ccccc6)c4O[C@H]2[C@@H](O)C=C[C@H]3[C@H]1C5 | 76 | 43 | –
7 | CN1CC[C@]23c4c5ccc(-c6cccs6)c4O[C@H]2[C@@H](O)C=C[C@H]3[C@H]1C5 | 25 | 49 | –
8 | CC(=O)c1ccc2c3c1O[C@H]1[C@@H](O)C=C[C@H]4[C@@H](C2)N(C)CC[C@@]341 | 5.1 | – | 0.64
9 | CN1CC[C@]23c4c5cccc4O[C@H]2[C@@H](O)C=C[C@H]3[C@H]1C5 | 11 | – | 0.53
10 | CN1CC[C@]23c4c5ccc(-c6ccsc6)c4O[C@H]2[C@@H](O)C=C[C@H]3[C@H]1C5 | 15 | – | 3.3
